Data: paper PMC12257544, “Fluorescent Isostere (Fluostere) of the Carboxylate: Design of hDHODH Fluorescent Inhibitors as Proof of Concept” (Journal of Medicinal Chemistry, 2025)
Where “and” joins values, the source holds several entries; their conditions need not be identical. Equal values may be shown once. Read-outs that look alike come from different tables or passages of the source.

Legend:
[1] = test system: unrelated GST-conjugated-protein; test: Fluorescence control with an unrelated GST-conjugated protein; type: binding; conditions: fixed amount of compound, increasing protein concentration
Experimental: Because the isolated hDHODH used for the previous measurements, and in inhibition enzymatic assay, is the GST-tagged protein, we decided to confirm that the observed fluorescence enhancement resulted from specific binding of inhibitor 11a to the target protein and not from nonspecific interactions with the GST portion.
Apoptosis test rescue with uridine:
Figure S4. A) Analysis of the apoptotic rate induced by compound 11a, on THP-1 cell line (n = 3) with or without exogenous uridine at 100 µM. Compounds were utilized at 1 µM; apoptotic was evaluated after 3 days of treatment. DMSO: dimethyl sulfoxide. Cpd: compound. Ur: uridine. Statistical significance: Student’s t test: **p<0.01. B) Representative Annexin V-FITC/PI flow cytometry dot plots of THP-1 cells after 3 days of treatment in presence of vehicle (left), compound 11a (middle), compound 11a and uridine 100 µM. Data are representative of 3 independent experiments.
Figure S5. Fluorescence-based analysis of the potential contribution of GST-tag to the emission restoration of compound 11a. […]
increasing concentration versus a fixed amount of compound 11a. […]
show protein-dependent fluorescence restoration. […]

[2] = test system: THP1 cells; test: Annexin V apoptosis assay; type: cell-based, human
Experimental: After 3 days of culture, the apoptotic assay was performed using the Annexin V-FITC Kit (Miltenyi Biotec, Italy), according to the manufacturer's instructions. The apoptotic cells were acquired on […] and analyzed using Kaluza software version 2.1 (Beckman Coulter, Fullerton, CA).

[3] = Photophysical characterization (absorption, emission, QY, lifetime); type: physicochemical
Experimental: UV–Vis absorption spectra were recorded on a Cary60 spectrometer. Photoemission spectra, luminescence lifetimes, and quantum yields were acquired with a HORIBA Jobin Yvon IBH Fluorolog-TCSPC spectrofluorometer equipped with a Quanta-φ integrating sphere. […] Emission-decay data were collected in 2048 channels to 10000 counts in the peak channel. IRF was measures using colloidal silica suspension in H2O to scatter light. Data were analyzed with the software DAS6 (TCSPC decay-analysis software) using a nonlinear least-squares method to fit of the decay to a sum of exponentials. The value of χ^2, residuals and the autocorrelation function (Durbin-Watson parameter) were used to determine the quality of the fit. For measurements in the presence of hDHODH, 11a was incubated, at 1 μM concentration in TRIS Buffer 0.1 mM (pH 8) with 0.1% DMSO, alone or with different concentrations of recombinant protein ranging from 31.5 to 504 nM concentration. After 5 min incubation UV–Vis absorption spectra were recorded on a Cary60 spectrophotometer and photoemission spectra were acquired with a HORIBA Jobin Yvon IBH Fluorolog-TCSPC spectrofluorometer with excitation λ of 366 nm and maximum of emission at 500 nm; a.u. data were analyzed with GraphPad Prism using One Site – Specific Binding equation.

[4] = molecular target: hDHODH enzyme GST-tagged (Homo sapiens, UniProt Q02127); test: hDHODH inhibition assay (DCIP reduction)
hDHODH enzyme GST-tagged, sequence (Q02127 whole entry): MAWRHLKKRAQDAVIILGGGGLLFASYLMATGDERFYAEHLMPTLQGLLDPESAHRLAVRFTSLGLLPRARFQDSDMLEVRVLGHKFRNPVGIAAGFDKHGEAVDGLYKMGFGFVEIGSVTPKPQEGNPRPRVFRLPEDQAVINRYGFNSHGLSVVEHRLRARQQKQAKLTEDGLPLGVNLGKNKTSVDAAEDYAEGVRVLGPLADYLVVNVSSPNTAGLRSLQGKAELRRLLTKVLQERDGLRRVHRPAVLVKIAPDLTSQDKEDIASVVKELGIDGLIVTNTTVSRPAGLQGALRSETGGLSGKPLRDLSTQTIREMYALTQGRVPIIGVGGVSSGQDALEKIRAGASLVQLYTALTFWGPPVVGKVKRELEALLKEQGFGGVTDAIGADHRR
Experimental: The enzyme (around 60 nM) was preincubated for 5 min at 37 °C in Tris-buffer solution (pH 8.0) with coenzyme Q10 (100 μM), tested compounds at different concentrations (final DMSO concentration 0.1% v/v), and DCIP (50 μM). The reaction was initiated by addition of DHO (500 μM) and the reduction was monitored at λ = 650 nm. […] Values are means ± SE of three independent experiments.

[5] = test system: THP-1 cells; test: Co-localization competition assay with Bay2402234 (Manders coefficient); type: cell-based, human; conditions: 10 μM each, 3 h, Manders coefficient, Welch's t test p = 0.0024
Experimental: Colocalization between hDHODH inhibitors and mitochondria was quantified using Manders coefficient (Figure D).
THP-1 cells were incubated for 3 h with hDHODHi 11a and Bay240223410 at 10 μM, either alone or in combination. After incubation, the cells were washed and stained with Red-MitoTracker CMXRos (Thermo Fisher, Carlsbad, CA, USA) at a concentration of 100 nM for 30 min at 37 °C. Cells were imaged with a Leica TCS SP8 confocal system (Leica Microsystems) equipped with 4 excitation lasers (405 Diode, Argon, DPSS561, HeNe633). Images were acquired with a HCX PL APO 63×/1.4 NA oil-immersion objective with a resolution of 81 nm × 81 nm and were processed and analyzed with ImageJ software (Rasband, W.S., U.S. National Institutes of Health, Bethesda, […]). In particular, colocalization was analyzed with JACoP plugin and Manders’ coefficient was calculated

[6] = test system: HCT-8 cells; test: Cytotoxicity assay (CellTiter-Glo); type: cell-based, human; conditions: uninfected HCT-8 cells, 72 h
Experimental: (§1) After 72 h of incubation, the number of viable cells was determined using the CellTiter-Glo Luminescent assay (Promega, Milan, Italy). The cytotoxicity of the tested compounds was expressed as cytotoxic concentration (CC50).

[7] = Cytotoxicity assay (CellTiter-Glo); type: cell-based, human; conditions: human, HCT-8 cells (uninfected), uninfected HCT-8 cells
Experimental: as §1

[8] = test system: hCoV-OC43; test: Antiviral focus-forming reduction assay (FFRA) in HCT-8 cells; type: cell-based, human coronavirus OC43
Experimental: After virus adsorption (2 h at 33 °C), the infected cell cultures were incubated in medium containing the corresponding compounds plus 1% (w/v) methylcellulose (Merck) and 1% (v/v) FBS. […] Viral foci were microscopically counted, and the mean plaque counts for each drug concentration was converted in viral titer (PFU/mL).

[9] = Cytotoxicity assay (CellTiter-Glo); type: cell-based; conditions: human, MRC-5 cells; 72 h incubation; read-out: MRC-5 CC50 (C.L. 95 %)
Experimental: as §1

[10] = test system: A549 cells; test: Cell viability assay (CellTiter-Glo); type: cell-based; conditions: Homo sapiens, A549, 72 h; 3 days of culture; read-out: Viability EC50 A549 (C.L. 95 %)
Experimental: (§2) After 3 days of culture, the percentage of live cells was determined using the CellTiter-Glo Luminescent assay (Promega, Milan, Italy), following the manufacturer’s instructions.

[11] = test system: K562 cells; test: Cell viability assay (CellTiter-Glo); type: cell-based; conditions: Homo sapiens, K562, 72 h; 3 days of culture; read-out: Viability EC50 K562 (C.L. 95 %)
Experimental: as §2

## Oc1nn2ccccc2c1/C=C/c1c(F)c(F)c(-c2ccccc2)c(F)c1F [Compound 11a, (E)-3-(2-(2,3,5,6-Tetrafluoro-[1,1’-biphenyl]-4-yl)vinyl)pyrazolo[1,5-a]pyridin-2-ol]
[1]
  fluorescence in the presence of an unrelated GST-conjugated protein: no restoration of fluorescence
[2]; Homo sapiens, THP-1, 72 h, 3 days of culture, Annexin V-FITC, read-out: Apoptosis EC50 THP1 (C.L. 95 %)
  EC50: 0.693 µM
[2]; lower than MEDS433, THP1 apoptosis
  antileukemic activity relative to MEDS433: ~10 fold
[2]; uridine 100 μM, compound 1 µM, THP-1, 3 days
  pro-apoptotic activity after adding exogenous uridine: completely reversed
[3]; PBS, polar protic solvent
  emission in PBS solution: completely quenched
[3]; TRIS buffer (pH 8), conditions of the enzymatic assay, no protein
  emission in TRIS buffer: absence of emission
[3]; in ACN
  Lifetime: <1 ns
  QY (luminescence quantum yield): 0.12
  Stokes shift: 4174 cm^–1
  λabs: 442 nm
  λem: 535 nm and 542 nm
[4]
  IC50: 0.17 µM
[5]
  colocalization signal with the mitochondria in the presence of Bay2402234: decreased slightly but statistically significantly
[6]
  CC50: 301 ± 8.97 µM
[7]
  CC50 at 72 h: 301 ± 9 µM
[8]; Betacoronavirus 1, OC43, HCT-8, 72 h, read-out: EC50, concentration inhibiting 50% of virus replication, hCoV-OC43, FFRA in HCT-8 cells, 72 h p.i., full treatment
  EC50: 2.3 ± 0.5 µM
[8]; Betacoronavirus 1, OC43, HCT-8, 72 h, read-out: EC90, concentration inhibiting 90% of virus replication
  EC90: 23.3 ± 0.4 µM
[8]; HCT-8 CC50 / hCoV-OC43 EC50
  SI, Selectivity Index (ratio of CC50 to EC50): 131
[9]
  CC50 at 72 h: 7 µM
[10]
  EC50: 0.423 µM
[11]
  EC50: 0.114 µM
